Experimental findings from patent publication US7157561B2, “Methods of inhibiting transmission of a costimulatory signal of lymphocytes” (Roche Diagnostics Operations, Inc., priority 2001, dated 2007) are described below.

One test relates to antibody ATZ 3.1. The experiment in a line: Antibody specificity ELISA (competition of free drug with atazanavir-BSA conjugate), antibody ATZ 3.1. Conditions: for ED50 (M/L): free drug concentration giving 50% of binding in absence of free drug, 4-parameter logistic fit; for % Cross Rx: relative to atazanavir ED50. It counts as binding, mouse. The method, then:
(§1) Screening of growing hybridomas was carried out by an ELISA using the atazanavir-BSA conjugate (7) and free atazanavir. Microplates were coated with 50 μL atazanavir-BSA conjugate at 1 μg/mL in 0.1 M carbonate buffer, pH 9.5 for 1 hour at 37° C. (humidified). The plates were then emptied and filled with a post-coat solution consisting of Tris buffer, 1% gelatin hydrolysate, 2% sucrose, and 0/17% TWEEN 20 (all from Sigma Chemical Co.). The plates were incubated for an additional 1 hour at 37° C. (humidified) after which they were washed with phosphate-buffered saline containing 0.1% TWEEN 20. The plates were then filled with a 2% sucrose solution in 0.15 M Tris, pH 7.2–7.4 briefly, then emptied and allowed to air dry at room temperature. When dried, the plates were packed in zip-lock bags containing several desiccant pillows, sealed, and stored at 4° C. until use.
(§2) When the growing clones were judged ready for testing, 25 μL of supernatant from the wells were taken and transferred to 96-well flexible plates. Culture medium was added to each well to provide a 1:10 dilution of the media sample. Two atazanavir-BSA coated wells were used for each culture well tested. One well received 25 μL of PBS buffer, the other received 25 μL of PBS containing atazanavir drug at a concentration of 800 ng/ml. Twenty-five microliters of the diluted sample were transferred to each of two of the coated wells above. The plates were incubated covered for 1 hour at 37° C., then washed with PBS-TWEEN. The wells were then filled with 100 μL of goat anti-mouse IgG-HRP conjugate (Zymed Labs) diluted 1:5,000 in PBS-TWEEN and the plates re-incubated for 1 hour. The plates were then washed again, and 100 μL of K-BLUE SUBSTRATE (Neogen Corp) were added to each well. This was allowed to develop for 5–15 minutes, the reaction being stopped by the addition of 100 μL of 1 N HCl. Color was read via a microplate reader at 450 nm and collected by computer for analysis. Criteria for selection were binding to the well in which the PBS was added and significant inhibition of binding in the well receiving the free drug.
(§3) The antibody containing culture supernatants from the expansion cultures were subjected to specificity analysis by the following procedure. First, the titer appropriate for analysis was determined by dilution analysis. A dilution of antibody providing for approximately 50% of maximal binding was selected for proceeding to the next step. Second, binding to the atazanavir-BSA conjugate was examined at the above antibody dilution, in the presence of varying amounts of seven HIV protease inhibitor drugs. The data was subjected to analysis by non-linear regression curve fitting to a 4-parameter logistic function. That parameter which describes the concentration of the free drug which corresponds to 50% of the binding in the absence of free drug is termed the ED50 for that drug. The specificity of the antibody can thus be described by comparing the ED50 of the cognate drug, atazanavir, or atz ED50 with the other values for other drugs fitted from those data according to the following equation (using nelfinavir data for this example):
(§4) [formula] The four parameter logistic function used is
(§5) [formula] where S is the curvature parameter, ODmax is the optical density with 0 drug concentration, ODmin is the optical density of the background of the instrument, and ODx is the optical density observed at drug concentration X in moles/liter (M/L).
(§6) Atazanavir metabolite is 4-pyridin-2-yl-benzoic acid (Synchem, Inc.).
In general terms: ELISA stands for enzyme-linked immunosorbent assay.

A further test relates to antibody ATZ 4.1. As to the kind of experiment: Antibody specificity ELISA (competition of free drug with atazanavir-BSA conjugate), antibody ATZ 4.1. The following applies: for ED50 (M/L): free drug concentration giving 50% of binding in absence of free drug, 4-parameter logistic fit; for % Cross Rx: relative to atazanavir ED50. It counts as binding, mouse. On the procedure: as §1, §2, §3, §4, §5, §6

Take `CC(C)CN(C[C@@H](O)[C@H](Cc1ccccc1)NC(=O)O[C@H]1CCOC1)S(=O)(=O)c1ccc(N)cc1` [Amprenavir, amprenavir]: in the test on antibody ATZ 3.1, the “ED50 (M/L)” value is >2 × 10^−6 M/L and the “% Cross Rx” value is reported as under 1%. Moreover, in the test with antibody ATZ 4.1, the “ED50 (M/L)” value is given as >2 × 10^−6 M/L and the “% Cross Rx” value is under 1%.

As to `O=C(O)c1ccc(-c2ccccn2)cc1` [Atazanavir metabolite, 4-pyridin-2-yl-benzoic acid], the “ED50 (M/L)” value in the test with antibody ATZ 3.1 and in the test with antibody ATZ 4.1 was >2 × 10^−6 M/L in each case. Moreover, the “% Cross Rx” value with antibody ATZ 3.1 and in the test with antibody ATZ 4.1 was under 1% in each case.

As for `COC(=O)N[C@H](C(=O)N[C@@H](Cc1ccccc1)[C@@H](O)CN(Cc1ccc(-c2ccccn2)cc1)NC(=O)[C@@H](NC(=O)OC)C(C)(C)C)C(C)(C)C` [Atazanavir, atazanavir], in the test with antibody ATZ 3.1, the “ED50 (M/L)” value is listed as 7 × 10^−7 M/L and the “% Cross Rx” value was found to be 100%. Besides, in the test with antibody ATZ 4.1, the “ED50 (M/L)” value is reported as 4.4 × 10^−6 M/L and the “% Cross Rx” value stood at 100%.

Regarding `CC(C)(C)NC(=O)[C@@H]1CN(Cc2cccnc2)CCN1C[C@@H](O)C[C@@H](Cc1ccccc1)C(=O)N[C@H]1c2ccccc2C[C@H]1O` [Indinavir, indinavir], in the test with antibody ATZ 3.1, the “ED50 (M/L)” value was >2 × 10^−6 M/L and the “% Cross Rx” value is on record as under 1%. For the same compound, in the test on antibody ATZ 4.1, the “ED50 (M/L)” value was >2 × 10^−6 M/L and the “% Cross Rx” value is recorded as under 1%.

For `Cc1cccc(C)c1OCC(=O)N[C@@H](Cc1ccccc1)[C@@H](O)C[C@H](Cc1ccccc1)NC(=O)[C@H](C(C)C)N1CCCNC1=O` [Lopinavir, lopinavir], the “ED50 (M/L)” value in the test with antibody ATZ 3.1 and in the test with antibody ATZ 4.1 was >2 × 10^−6 M/L each time. Further, the “% Cross Rx” value in the test on antibody ATZ 3.1 and in the test with antibody ATZ 4.1 was under 1% each time.

Regarding `Cc1c(O)cccc1C(=O)N[C@@H](CSc1ccccc1)[C@H](O)CN1C[C@H]2CCCC[C@H]2C[C@H]1C(=O)NC(C)(C)C` [Nelfinavir, nelfinavir], the “ED50 (M/L)” value in the test with antibody ATZ 3.1 and in the test with antibody ATZ 4.1 was >2 × 10^−6 M/L each time. For the same compound, the “% Cross Rx” value in the test with antibody ATZ 3.1 and in the test with antibody ATZ 4.1 was under 1% each time.

Turning to `CC(C)c1nc(CN(C)C(=O)N[C@H](C(=O)N[C@@H](Cc2ccccc2)C[C@H](O)[C@H](Cc2ccccc2)NC(=O)OCc2cncs2)C(C)C)cs1` [Ritonavir, ritonavir], in the test on antibody ATZ 3.1, the “ED50 (M/L)” value is recorded as >2 × 10^−6 M/L and the “% Cross Rx” value is listed as under 1%. In addition, in the test on antibody ATZ 4.1, the “ED50 (M/L)” value is >2 × 10^−6 M/L and the “% Cross Rx” value is reported as under 1%.

Consider `CC(C)(C)NC(=O)[C@@H]1C[C@@H]2CCCC[C@@H]2CN1C[C@@H](O)[C@H](Cc1ccccc1)NC(=O)[C@H](CC(N)=O)NC(=O)c1ccc2ccccc2n1` [Saquinavir, saquinavir], for which, in the test with antibody ATZ 3.1, the “ED50 (M/L)” value was >2 × 10^−6 M/L and the “% Cross Rx” value is under 1%. Moreover, in the test on antibody ATZ 4.1, the “ED50 (M/L)” value is listed as >2 × 10^−6 M/L and the “% Cross Rx” value was under 1%.
